The test system of data set [1] is retinal neovascularization. The note with it: pigs; cited from earlier work.
For a further data set, the system named is PDGF receptors. Briefly: Cellular autophosphorylation assay, transfected Chinese hamster ovary cells: PDGF receptors. It is filed as cell-based. The procedure:
(§1) In vivo activity requires drugs to enter cells and therefore agents are tested in cellular autophosphorylation assays, using Chinese hamster ovary cells transfected with one of several RTK genes.

Data set [2] has as its system choroidal neovascularization. In words: Laser-induced choroidal neovascularization in mice. The note with it: 50 mg/kg/day by gavage.
Protocol: Choroidal neovascularization is generated by modification of a previously described technique. […] Three burns of krypton laser photocoagulation (100pm spot size, 0.1 seconds duration, 150 mW) are delivered to each retina using the slit lamp delivery system of a Coherent Model 920 Photocoagulator and a hand held cover slide as a contact lens. Burns are performed in the 9, 12, and 3 o'clock positions of the posterior pole of the retina. Production of a bubble at the time of laser, which indicates rupture of Bruch's membrane, is an important factor in obtaining CNV ^16, so only mice in which a bubble is produced for all three burns are included in the study. Ten mice are randomly assigned to treatment with vehicle alone and 10 mice received vehicle containing 120 μmoles/kg/day of one of the test drugs given orally by gavage. After 14 days, the mice are killed with an overdose of pentobarbital sodium, and their eyes are rapidly removed and frozen in optimal cutting temperature embedding compound (OCT).
After a 10 minute wash in 0.05 M Tris buffer, pH 7.6, slides are developed in Histomark Red (Kirkegaard and Perry) to give a red reaction product, and mounted with Cytoseal (Stephens Scientific, Riverdale, N.J.). Some slides are counterstained with Contrast Blue (Kirkegaard and Perry).
For each lesion, area measurements are made for all sections on which some of the lesion appeared and added together to give the integrated area measurement. Values are averaged to give one experimental value per mouse. A 2-sample t-test for unequal variances is performed to compare the log mean integrated area between treatment and control mice.
For another data set, the system named is VEGF receptors. Briefly: Cellular autophosphorylation assay, transfected Chinese hamster ovary cells: VEGF receptors. It is filed as cell-based. As for the experimental part: as §1
The target of the next data set is T1, c-Kit (Homo sapiens, UniProt P10721).
T1 construct: expressed in transfected cells; host or cells: Chinese hamster ovary cells
It is filed as cell-based. The note with it: transfected Chinese hamster ovary cells. As for the experimental part:
as §1

The subject of data set [3] is all other tyrosine kinase and serine/threonine kinases tested. Briefly: Kinase assay, all other tyrosine kinase and serine/threonine kinases tested. It is filed as biochemical. Conditions: in words.
The target of a further data set is T2, Flt-1 (Homo sapiens, UniProt P17948).
T2 construct: kinase domains of human VEGF receptors 1 and 2
T2 sequence (P17948 827-1158 limits assumed): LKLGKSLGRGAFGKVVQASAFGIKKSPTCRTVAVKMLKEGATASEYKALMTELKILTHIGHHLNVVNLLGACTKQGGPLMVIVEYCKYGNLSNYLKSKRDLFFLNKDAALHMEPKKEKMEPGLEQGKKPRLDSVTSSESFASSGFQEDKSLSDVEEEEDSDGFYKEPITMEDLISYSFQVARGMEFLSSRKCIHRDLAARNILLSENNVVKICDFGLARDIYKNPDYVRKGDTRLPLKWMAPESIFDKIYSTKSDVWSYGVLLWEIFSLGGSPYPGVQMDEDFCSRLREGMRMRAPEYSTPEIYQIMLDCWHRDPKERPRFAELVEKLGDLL
Briefly: Tyrosine kinase assay, phosphorylation of poly(GluTyr) by GST-fusion kinase domain: Flt-1. It is filed as biochemical. The note with it: in words.

A further data set concerns insulin receptor. Briefly: Cellular autophosphorylation assay, transfected Chinese hamster ovary cells: insulin receptor. It is filed as cell-based.
Data set [4] relates to retinal vascular development. Briefly: Retinal vascular development in neonatal mice. In kind it is in vivo, mouse (C57/BL6J).
Protocol: Litters of newborn C57/BL6J mice are divided into treatment and control groups which received daily subcutaneous injections of 10 mg/kg of drug or vehicle, respectively. […] The eyes are removed and fixed for 1 hour in 10% phosphate-buffered formalin. The cornea and lens are removed and the entire retina is carefully dissected from the eyecup, radially cut from the edge of the retina to the equator in all 4 quadrants, and flat-mounted in Aquamount with photoreceptors facing upward.
The next data set relates to c-erbB2. Briefly: Cellular autophosphorylation assay, transfected Chinese hamster ovary cells: c-erbB2. In kind it is cell-based. As for the experimental part: as §1
Another data set relates to RTKs. Conditions: in words; cited from earlier work.
A further data set has as its system retinal blood vessels. Conditions: administration of exogenous VEGF; cited from earlier work.
In data set [5] the test system is other RTKs including VEGF receptors. Briefly: Kinase assay, other RTKs including VEGF receptors. In kind it is biochemical. The note with it: in words.

T1 sequence (P10721 26-976): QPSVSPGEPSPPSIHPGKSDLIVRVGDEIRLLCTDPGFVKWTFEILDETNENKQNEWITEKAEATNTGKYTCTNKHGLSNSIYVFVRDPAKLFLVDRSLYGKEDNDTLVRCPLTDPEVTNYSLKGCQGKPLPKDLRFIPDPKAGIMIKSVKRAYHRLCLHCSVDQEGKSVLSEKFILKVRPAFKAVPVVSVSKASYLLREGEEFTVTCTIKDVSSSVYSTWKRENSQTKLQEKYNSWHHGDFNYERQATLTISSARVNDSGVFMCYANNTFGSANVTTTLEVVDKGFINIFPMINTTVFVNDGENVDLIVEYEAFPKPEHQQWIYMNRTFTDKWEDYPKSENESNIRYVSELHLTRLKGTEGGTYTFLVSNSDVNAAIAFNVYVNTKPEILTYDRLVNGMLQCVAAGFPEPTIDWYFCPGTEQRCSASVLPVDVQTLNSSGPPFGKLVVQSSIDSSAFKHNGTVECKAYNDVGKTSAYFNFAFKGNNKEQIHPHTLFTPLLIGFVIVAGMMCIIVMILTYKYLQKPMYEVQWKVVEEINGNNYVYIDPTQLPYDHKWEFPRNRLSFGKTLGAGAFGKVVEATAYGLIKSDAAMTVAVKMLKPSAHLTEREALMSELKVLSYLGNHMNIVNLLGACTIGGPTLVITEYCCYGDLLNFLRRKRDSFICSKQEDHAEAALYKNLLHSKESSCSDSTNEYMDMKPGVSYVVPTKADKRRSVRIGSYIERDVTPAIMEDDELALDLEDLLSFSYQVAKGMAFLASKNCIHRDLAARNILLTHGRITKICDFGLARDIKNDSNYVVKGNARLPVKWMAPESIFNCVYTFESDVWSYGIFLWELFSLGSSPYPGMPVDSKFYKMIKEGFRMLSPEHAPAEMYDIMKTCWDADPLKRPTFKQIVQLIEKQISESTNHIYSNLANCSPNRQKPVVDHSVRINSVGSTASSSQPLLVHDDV

As to `CN(C)C[C@@H]1CCn2cc(c3ccccc32)C2=C(C(=O)NC2=O)c2cn(c3ccccc23)CCO1` [LY 333531], the “inhibition of retinal neovascularization after laser-induced branch vein occlusion” value in data set [1] was “partially inhibited retinal neovascularization”.

As for `Clc1ccc(Nc2nnc(Cc3ccncc3)c3ccccc23)cc1` [CGP 79787D], the “inhibition of autophosphorylation of PDGF receptors” value with PDGF receptors was “inhibits autophosphorylation”. Moreover, in data set [2] (two weeks after laser), the “appearance of overlying retinal vessels” value is given as “appeared normal” and the “choroidal neovascularization at laser-induced rupture sites of Bruch's membrane” value is “very little if any choroidal neovascularization”. For the same compound, in data set [2] (n=5, vehicle 0.0713812±0.0066723 mm^2), the “integrated area of lectin staining per lesion” value was determined as 0.01124±0.001483 mm^2. The “inhibition of autophosphorylation of VEGF receptors” value with VEGF receptors is recorded as “inhibits autophosphorylation”. At c-Kit, the “inhibition of autophosphorylation of c-Kit” value is “inhibits autophosphorylation”. Also, the “inhibition of phosphorylation by all other kinases tested” value in data set [3] is reported as “poor inhibitor”. The “inhibition of phosphorylation by the kinase domain of human VEGF receptor 1” value on Flt-1 is given as “good inhibitor”. The “inhibition of autophosphorylation of insulin receptor” value in the data set with insulin receptor is recorded as “poor inhibitor”. In addition, in [4] (10 mg/kg daily s.c. from P0, P7), the “extent of retinal vessels at P7” value is “only extended about half way to the periphery”. Moreover, in [4] (10 mg/kg daily s.c. from P0, P10), the “extent of superficial capillary bed at P10” value is “has not yet reached the edge of the retina”. Further, the “significance of differences in retinal vascular development versus vehicle” value in data set [4] (10 mg/kg daily s.c., P7 and P10, FIG. 5) is recorded as “highly significant”. Moreover, the “inhibition of autophosphorylation of c-erbB2” value in the data set on c-erbB2 is “poor inhibitor”.

With `O=c1c(-c2ccc(O)cc2)coc2cc(O)cc(O)c12` [Genistein, 4',5,7-trihydroxyisoflavone], the “inhibition of RTKs” value in the data set on RTKs is “relatively weak, nonspecific inhibitor”.

VEGF: in the data set with retinal blood vessels, the “hyperoxia-induced regression of retinal blood vessels” value was “prevented”.

Consider `Cc1ccc(NC(=O)c2ccccc2)cc1Nc1nccc(-c2cccnc2)n1` [CGP 53 716], for which, in the data set with PDGF receptors, the “inhibition of autophosphorylation of PDGF receptors” value is reported as “potent inhibitors”. For the same compound, in the data set on VEGF receptors, the “inhibition of autophosphorylation of VEGF receptors” value is listed as “poor inhibitors”. The “inhibition of other RTKs including VEGF receptors” value in data set [5] is reported as “little or no inhibitory activity”.

These data come from patent publication US6271233A, “Method for treating ocular neovascular diseases” (priority 1999, dated 2001).
